From ChEMBL document CHEMBL6153062, “Design, Synthesis, and Unprecedented Interactions of Covalent Dipeptide-Based Inhibitors of SARS-CoV-2 Main Protease and Its Variants Displaying Potent Antiviral Activity” (J Med Chem, 2025)
pEC50, pIC50: −log10 of the molar value.

Assays:
[1] = Inhibition of SARS-CoV-2 MPro using Boc-Abu-Tle-Leu-Gln-AMC as substrate preincubated for 5 mins followed by substrate addition and measured after 60 mins; design: species or system Severe acute respiratory syndrome coronavirus 2
[2] = system: Severe acute respiratory syndrome coronavirus 2; experiment: Inhibition of SARS-CoV-2 MPro using Boc-Abu-Tle-Leu-Gln-AMC as substrate assessed as Kinact/Ki ratio preincubated for 5 mins followed by substrate addition and measured after 60 mins; settings: time 65.0 min
[3] = Inhibition of recombinant SARS-CoV-1 Main protease using Ac-Abu-Tle-Leu-Gln-ACC as substrate incubated for 15 mins by fluorescence based microplate reader analysis; design: species or system Severe acute respiratory syndrome-related coronavirus
SARS-CoV-2 [4] = format: functional, organism-based; settings: Severe acute respiratory syndrome coronavirus 2, B.1.513, Calu-3
Calu-3 = experiment: Cytotoxicity against human Calu-3 cells assessed as reduction in cell viability at 10 uM measured after 24 hrs by celltiter-glo assay; format: functional, cell-based
[5] = Inhibition of MERS-CoV Main protease using Ac-Abu-Tle-Leu-Gln-ACC as substrate incubated for 15 mins by fluorescence based microplate reader analysis; design: species or system Middle East respiratory syndrome-related coronavirus
[6] = system: Middle East respiratory syndrome-related coronavirus; experiment: Inhibition of MERS-CoV Main protease using Ac-Abu-Tle-Leu-Gln-ACC as substrate at 10 uM incubated for 15 mins by fluorescence based microplate reader analysis relative to control
[7] = Reversible inhibition of SARS-CoV-2 MPro using Boc-Abu-Tle-Leu-Gln-AMC as substrate preincubated for 5 mins followed by substrate addition and measured after 60 mins; design: species or system Severe acute respiratory syndrome coronavirus 2
[8] = Irreversible inhibition of SARS-CoV-2 MPro using Boc-Abu-Tle-Leu-Gln-AMC as substrate preincubated for 5 mins followed by substrate addition and measured after 60 mins; design: species or system Severe acute respiratory syndrome coronavirus 2
SARS-CoV-2 [9] = experiment: microbe, parasite or virus in culture; settings: Severe acute respiratory syndrome coronavirus 2

C=CC(=O)[C@H](Cc1ccccc1)NC(=O)[C@H](CC(C)C)NC(=O)/C=C/c1ccccc1
pIC50 [1]: 6.88
Ratio [2]: 9630 M⁻¹ s⁻¹
pIC50 [3]: 6.96

C=CC(=O)[C@H](Cc1ccccc1)NC(=O)[C@H](CC(C)C)NC(=O)COc1cccc(OC)c1
pIC50 [1]: 7.05
pEC50 (SARS-CoV-2 [4]): 6.25
Activity (Calu-3): Not toxic
pIC50 [3]: 7.24
pIC50 [5]: 6.25

C=CC(=O)[C@H](Cc1ccccc1)NC(=O)[C@H](CC(C)C)NC(=O)CCc1ccc(N(C)C)cc1
pIC50 [1]: 6.82
Ratio [2]: 14700 M⁻¹ s⁻¹

C=CC(=O)[C@H](Cc1ccccc1)NC(=O)[C@H](CC(C)C)NC(=O)c1cc2ccccc2o1
pIC50 [1]: 6.39
Ratio [2]: 9900 M⁻¹ s⁻¹
pIC50 [3]: 7.70
pIC50 [5]: 6.03

C=CC(=O)[C@H](Cc1ccccc1)NC(=O)[C@H](CC(C)C)NC(=O)C1CC1c1ccccc1 (stereo not given in full)
pIC50 [1]: 6.86
Ratio [2]: 14500 M⁻¹ s⁻¹

CC(C)C[C@H](NC(=O)c1cc2ccccc2s1)C(=O)N[C@@H](Cc1ccccc1)C(=O)C=CN(C)C
pIC50 [1]: 4.72

CC(C)C[C@H](NC(=O)CSc1ccccc1)C(=O)N[C@@H](Cc1ccccc1)C(=O)c1nc2ccccc2s1
pIC50 [1]: < 5.00

C=CC(=O)[C@H](Cc1ccccc1)NC(=O)[C@H](CC(C)C)NC(=O)c1cc2ccccc2[nH]1
pIC50 [1]: 6.93
pEC50 (SARS-CoV-2 [4]): 8.59
Activity (Calu-3): Not toxic
pIC50 [3]: 6.45
pIC50 [5]: 7.16

C=CC(=O)[C@H](Cc1ccccc1)NC(=O)[C@H](CC(C)C)NC(=O)/C=C/c1ccc(OC(F)(F)F)cc1
pIC50 [1]: 6.32
pEC50 (SARS-CoV-2 [4]): 7.46
Activity (Calu-3): Not toxic
pIC50 [3]: 7.14
pIC50 [5]: < 5.00
inhibition [6]: 32%

C=CC(=O)[C@H](Cc1ccccc1)NC(=O)[C@H](CC(C)C)NC(=O)c1cc(C(C)(C)C)nn1C
pIC50 [1]: 6.22
Ratio [2]: 5400 M⁻¹ s⁻¹

C=CC(=O)[C@H](Cc1ccccc1)NC(=O)[C@H](CC(C)C)NC(=O)c1cc2ccccc2n1C
pEC50 (SARS-CoV-2 [4]): 6.40
pIC50 [7]: 7.02
Activity (Calu-3): Not toxic

C=CC(=O)[C@H](Cc1ccccc1)NC(=O)[C@H](CC(C)C)NC(=O)/C=C/c1ccc(Cl)cc1
pIC50 [1]: 7.20
pEC50 (SARS-CoV-2 [4]): 6.64
Activity (Calu-3): Not toxic

C=CC(=O)[C@H](Cc1ccccc1)NC(=O)[C@H](CC(C)C)NC(=O)COc1ccccc1
pEC50 (SARS-CoV-2 [4]): 7.91
pIC50 [7]: 7.21
Activity (Calu-3): Not toxic
pIC50 [3]: 7.57
pIC50 [5]: 6.86

C=CC(=O)[C@H](Cc1ccccc1)NC(=O)[C@H](CC(C)C)NC(=O)CCc1ccccc1
pIC50 [1]: 6.73
Ratio [2]: 16100 M⁻¹ s⁻¹

C=CC(=O)[C@H](Cc1ccccc1)NC(=O)[C@H](CC(C)C)NC(=O)c1cc(C)on1
pIC50 [1]: 6.35
Ratio [2]: 21300 M⁻¹ s⁻¹

C=CC(=O)[C@H](Cc1ccccc1)NC(=O)[C@H](CC(C)C)NC(=O)/C=C/c1ccc(Cl)cc1Cl
pIC50 [1]: 6.47
Ratio [2]: 7000 M⁻¹ s⁻¹

C=CC(=O)[C@H](Cc1cccc(F)c1)NC(=O)[C@H](CC(C)C)NC(=O)COc1ccc(Cl)cc1Cl
pEC50 (SARS-CoV-2 [4]): 5.47
pIC50 [7]: 7.36
Activity (Calu-3): Not toxic

C=CC(=O)[C@H](Cc1ccccc1)NC(=O)[C@H](CC(C)C)NC(=O)COc1cccc(N(C)C)c1
pIC50 [1]: 6.88
Ratio [2]: 22600 M⁻¹ s⁻¹
Activity (Calu-3): Not toxic

C=CC(=O)[C@H](Cc1ccccc1)NC(=O)[C@H](CC(C)C)NC(=O)C1CCc2ccccc2O1 (stereo not given in full)
pIC50 [1]: 6.64
Ratio [2]: 14900 M⁻¹ s⁻¹

CC(C)C[C@H](NC(=O)OCc1ccccc1)C(=O)N[C@H](C=O)C[C@@H]1CCNC1=O
pIC50 [3]: 7.36
pIC50 [5]: 7.11

C=CC(=O)[C@H](Cc1ccccc1)NC(=O)[C@H](CC(C)C)NC(=O)CSc1cccc(OC)c1
pEC50 (SARS-CoV-2 [4]): 6.76
pIC50 [8]: 7.33
Activity (Calu-3): Not toxic

C=CC(=O)[C@H](Cc1ccccc1)NC(=O)[C@H](CC(C)C)NC(=O)COc1cc(Cl)c(Cl)cc1Cl
pIC50 [1]: 6.87
Ratio [2]: 26500 M⁻¹ s⁻¹

O=C(NC1CCCC1)C(=O)[C@H](C[C@@H]1CCNC1=O)NC(=O)[C@@H]1[C@H]2CCC[C@H]2CN1C(=O)[C@@H](NC(=O)C(F)(F)F)C1CCCCC1
pEC50 (SARS-CoV-2 [9]): 7.05

C=CC(=O)[C@H](Cc1ccccc1)NC(=O)[C@H](CC(C)C)NC(=O)c1ccc(-c2ccccc2)o1
pIC50 [1]: 6.44
Ratio [2]: 16400 M⁻¹ s⁻¹
pIC50 [3]: 7.66
pIC50 [5]: 6.27

C=CC(=O)[C@H](Cc1ccccc1)NC(=O)[C@H](CC(C)C)NC(=O)CCc1ccc(OC(F)(F)F)cc1
pIC50 [1]: 6.74
Ratio [2]: 14000 M⁻¹ s⁻¹

C=CC(=O)[C@H](Cc1cccc(Cl)c1)NC(=O)[C@H](CC(C)C)NC(=O)COc1cccc(OC)c1
pEC50 (SARS-CoV-2 [4]): 7.34
pIC50 [7]: 7.62
Activity (Calu-3): Not toxic

C=CC(=O)[C@H](Cc1ccccc1)NC(=O)[C@H](CC(C)C)NC(=O)COc1ccc(Cl)cc1
pIC50 [1]: 7.01
pEC50 (SARS-CoV-2 [4]): 6.74
Activity (Calu-3): Not toxic
pIC50 [3]: 6.69
pIC50 [5]: 5.85

C=CC(=O)[C@H](Cc1cccc(F)c1)NC(=O)[C@H](CC(C)C)NC(=O)CSc1ccccc1
pEC50 (SARS-CoV-2 [4]): 8.38
pIC50 [8]: 7.68
Activity (Calu-3): Not toxic

C=CC(=O)[C@H](Cc1ccccc1)NC(=O)[C@H](CC(C)C)NC(=O)/C=C/c1cc(OC)cc(OC)c1
pIC50 [1]: 6.14
Ratio [2]: 9130 M⁻¹ s⁻¹
pIC50 [3]: 7.64
pIC50 [5]: < 5.00
inhibition [6]: 48%

C=CC(=O)[C@H](Cc1cccc(Cl)c1)NC(=O)[C@H](CC(C)C)NC(=O)COc1ccc(Cl)cc1Cl
pIC50 [7]: 7.43
Activity (Calu-3): Not toxic
pIC50 [3]: 7.89
pIC50 [5]: < 5.00
inhibition [6]: 44%

CC(C)C(=O)OC[C@H]1O[C@@H](n2cc/c(=N\O)[nH]c2=O)[C@H](O)[C@@H]1O [MOLNUPIRAVIR]
pEC50 (SARS-CoV-2 [4]): 8.49

C=CC(=O)[C@H](Cc1ccccc1)NC(=O)[C@H](CC(C)C)NC(=O)c1csc(-c2ccccc2)n1
pIC50 [1]: 6.82
Ratio [2]: 32500 M⁻¹ s⁻¹

C=CC(=O)[C@H](Cc1ccccc1)NC(=O)[C@H](CC(C)C)NC(=O)c1sc(-c2ccccc2)nc1C
pIC50 [1]: 6.93
Ratio [2]: 29000 M⁻¹ s⁻¹

C=CC(=O)[C@H](Cc1ccccc1)NC(=O)[C@H](CC(C)C)NC(=O)CCc1ccc(Cl)cc1Cl
pEC50 (SARS-CoV-2 [4]): 6.95
pIC50 [7]: 7.13
Activity (Calu-3): Not toxic

C=CC(=O)[C@H](Cc1ccccc1F)NC(=O)[C@H](CC(C)C)NC(=O)COc1ccc(Cl)cc1Cl
pIC50 [1]: 6.80
Ratio [2]: 13300 M⁻¹ s⁻¹

C=CC(=O)[C@H](Cc1ccccc1)NC(=O)[C@H](CC(C)C)NC(=O)C(C)(C)Sc1ccccc1
pIC50 [1]: 7.15
pEC50 (SARS-CoV-2 [4]): 7.06
pIC50 [7]: 7.15
Activity (Calu-3): Not toxic

C=CC(=O)[C@H](Cc1ccccc1)NC(=O)[C@H](CC(C)C)NC(=O)c1ccc(-c2ccccc2)s1
pIC50 [1]: 6.74
Ratio [2]: 15500 M⁻¹ s⁻¹

C=CC(=O)[C@H](Cc1ccccc1)NC(=O)[C@H](CC(C)C)NC(=O)/C=C/c1ccc(N(C)C)cc1
pIC50 [1]: 6.55
pEC50 (SARS-CoV-2 [4]): 6.49
Activity (Calu-3): Not toxic
pIC50 [3]: 7.24
pIC50 [5]: < 5.00
inhibition [6]: 40%

C=CC(=O)[C@H](Cc1ccccc1)NC(=O)[C@H](CC(C)C)NC(=O)c1cc2ccccc2s1
pIC50 [1]: 6.66
Ratio [2]: 21700 M⁻¹ s⁻¹

CC(C)C[C@H](NC(=O)c1cc2ccccc2o1)C(=O)N[C@@H](Cc1ccccc1)C(=O)C=CN(C)C
pIC50 [1]: < 5.00

CC(C)(C)[C@H](NC(=O)C(F)(F)F)C(=O)N1CC2(C[C@H]1C(=O)N[C@H](C#N)C[C@@H]1CCNC1=O)SCCS2
pEC50 (SARS-CoV-2 [9]): 7.52

C=CC(=O)[C@H](Cc1c[nH]c2ccccc12)NC(=O)[C@H](CC(C)C)NC(=O)COc1ccc(Cl)cc1Cl
pIC50 [1]: 6.50
pIC50 [3]: 7.24
pIC50 [5]: 5.97
